# Measured values reported in EP2067481A1, “Therapeutic use of desacyl ghrelin” (Charité - Universitätsmedizin Berlin, priority 2007, dated 2009).
# Test: Study underlying Fig. 6: cumulative food intake after ip ghrelin and desacyl ghrelin, alone or simultaneously, freely fed rats, light phase
# Type: in vivo, SD rats
# Settings: ghrelin 13 µg/kg ip plus vehicle
# Description: Male adult SD rats (Harlan-Winkelmann Co., Borchen, Germany) weighting 250 g were housed in groups of 4 rats/cage under conditions of controlled illumination (12:12 h light/dark cycle, lights on/off: 6:30 a.m./6:30 p.m.), humidity, and temperature (22 ± 2°C). Animals were fed with a standard rat diet (Altromin®, Lage, Germany) and tap water ad libitum. All animals were trained daily to be accustomed to the experimental conditions for 14 days before starting the experiments. During the handling phase, the back position was practiced to make animals familiar with receiving an ip injection.
# Rat desacyl ghrelin (0.5 mg/ml; Peptides International, Louisville, USA) or rat ghrelin (1 mg/ml) was dissolved in distilled water and stored at -20°C. Immediately before starting the experiments, peptides were diluted in vehicle solution consisting of sterile 0.15 M NaCl (Braun, Melsungen, Germany) to reach the final concentration of 13 µg (∼4 nmol) ghrelin/kg, and 64 µg (∼20 nmol) or 127 µg (∼40 nmol) desacyl ghrelin/kg body weight. Peptide solutions were kept on ice for the duration of the experiments. […]
# On the day of the experiment, freely fed animals were injected ip simultaneously (final volume: 0.5 ml) with vehicle plus vehicle (0.15 M NaCl + 0.15 M NaCl, n=13), ghrelin plus vehicle (13 µg/kg + 0.15 M NaCl, n=13), ghrelin (13 µg/kg) plus 64 µg/kg or 127 µg/kg desacyl ghrelin (n =13 in both groups), or vehicle plus 64 µg/kg desacyl ghrelin (n=13) and returned to single housing cages immediately after the injection. […] Food intake was determined by measuring the difference between the preweighed standard chow and the weight of chow at the end of the first 30 min, 1 h and 2 h food exposure.
# The cumulative food intake monitored at the end of the first 30 min, 1 h, and 2 h after peptide or vehicle injection was expressed as food intake (g)/body weight (kg) (Ruter et al. 2003). Data were expressed as mean ± SEM and analyzed by Kruskal-Wallis One Way ANOVA. Differences between groups were evaluated by the Student-Newman-Keuls method; p < 0.05 was considered significant.
substance,measurement,setting,value
n-octanoyl-ghrelin,cumulative food intake,"2h, vehicle plus vehicle 2.65 ± 0.93",7.71 ± 0.97 g/kg body weight
same,food intake,"first half hour, vehicle plus vehicle 1.49 ± 0.72",5.76 ± 0.68 g/kg body weight
same,cumulative food intake,"one hour, vehicle plus vehicle 1.49 ± 0.72",7.29 ± 0.92 g/kg
